Consider 21 compounds from ChEMBL document CHEMBL4715889, “Novel amide and imidazole compounds as potent hematopoietic prostaglandin D synthase inhibitors” (Bioorg Med Chem Lett, 2021).

Series [1] has as its target T1, Hematopoietic prostaglandin D synthase (Homo sapiens, UniProt O60760). Put plainly: Inhibition of HPGDS (unknown origin) by fluorescence polarization assay. (Fluorescence polarisation rises when a labelled molecule tumbles more slowly, as on binding a larger partner.)
Series [2] has as its target T1, Hematopoietic prostaglandin D synthase. Put plainly: Binding affinity to HPGDS (unknown origin) assessed as change in melting temperature by thermal shift assay.
For series [3] the target is unchanged. As to the kind of experiment: Binding affinity to HPGDS (unknown origin) assessed as change in melting temperature in presence of GSH by thermal shift assay.
Series [4] has the same target. Put plainly: Inhibition of HPGDS (unknown origin) assessed as reduction in reduction in GSTase activity relative to control. Details: concentration or dose not given beside the values. Particulars: concentration not given here.
Series [5] has the same target. Put plainly: Inhibition of HPGDS (unknown origin) assessed as reduction in reduction in LPS-induced PGD2 level by ELISA.
Series [6] in a line: Aqueous solubility of compound at pH 7.4. It is filed as physicochemical.
The target in series [7] is T1, Hematopoietic prostaglandin D synthase. As to the kind of experiment: Competitive inhibition of human HPGDS using PGH2 as substrate.
A short description of series [8]: Half life in human liver microsomes. The series is classed as ADME, Microsome.

The structures appear in SMILES notation. ≈ marks a conversion by molar mass, not a printed value.

T1 sequence (O60760 whole entry): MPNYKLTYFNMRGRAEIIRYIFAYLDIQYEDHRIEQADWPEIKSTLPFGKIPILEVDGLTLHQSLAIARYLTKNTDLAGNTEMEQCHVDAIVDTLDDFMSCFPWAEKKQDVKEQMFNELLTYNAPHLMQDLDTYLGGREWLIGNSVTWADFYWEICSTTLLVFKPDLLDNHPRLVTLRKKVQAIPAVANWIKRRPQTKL

Broadly, the IC50 is the midpoint of a concentration-inhibition curve. For orientation: ΔTm means the shift of the melting midpoint relative to a reference. The term inhibition denotes how much of the control response was suppressed. On to `c1ccc(-c2ccc(-c3cnc(-c4ccccc4)[nH]3)cn2)cc1`, for which the IC50 in series [1] was found to be 31.6 nM; in series [5], 40.5 nM. For the same compound, the figures for the shift in melting temperature (ΔTm) in series [2] and in series [3] were 3.2 °C and 4.4 °C, respectively. In series [4], the inhibition turned out to be 85.2%.
The like results for `c1ccc(-c2ncc(-c3ccc(-c4ccccn4)nc3)[nH]2)cc1` were, in that order, 37.2 nM, 44.5 nM, 4.2 °C, 5.2 °C and 73.5%.
The like results for `CC(C)(O)c1nc(-c2cccc(CNC(=O)c3cnc(-c4ccccn4)nc3)c2)no1` were, in that order, 7.48 nM, 11.6 nM, 0.5 °C, 5.1 °C and 90.9%.
In the case of `c1ccc(-c2ncc(-c3cnc(-c4ccccn4)nc3)[nH]2)cc1`, the figures for the IC50 in series [1] and in series [5] were 1770 nM and 5060 nM, respectively. Also, the values for the ΔTm in series [2] and in series [3] were 0.2 °C and 0.6 °C, respectively. For the same compound, in series [4], the inhibition came to 18.2%.
The term solubility denotes how much of the substance goes into solution per volume. In the case of `CC(C)(O)c1nc(-c2cccc(-c3ncc(-c4cnc(-c5ccccn5)nc4)[nH]3)c2)no1`, in series [1], the IC50 was determined as 3200 nM. Besides, the thermal shift (ΔTm) was found to be 0.4 °C in series [2] and 0.6 °C in series [3]. In addition, the inhibition in series [4] came to 25.5%. The same compound yielded a solubility in series [6] of 17.5 µM (≈ 7.45 µg/mL).
As to `CC(C)(O)c1nc(-c2cccc(CNC(=O)c3ccc(-c4ccccc4)nc3)c2)no1`, the IC50 in series [1] is 27.7 nM; in series [5], 808 nM. The thermal shift (ΔTm) in series [2] came out at 0.2 °C; in series [3], 3.3 °C. For the same compound, the inhibition in series [4] came to 62.4%.
The like results for `Cn1c(-c2cnc(-c3ccccc3)nc2)cnc1-c1ccccc1` were, in that order, 63.1 nM, 723 nM, 3.1 °C, 3.4 °C and 38.4%.
The like results for `c1ccc(-c2ncc(-c3cnc(-c4cccnc4)[nH]3)cn2)cc1` were, in that order, 13.2 nM, 12.5 nM, 4.9 °C, 5.7 °C and 65.1%.
For the compound `c1ccc(-c2ncc(-c3cnc(-c4cccnc4)s3)cn2)cc1`, the IC50 is 257 nM in series [1] and greater than 5000 nM in series [5]. The values for the shift in melting temperature (ΔTm) in series [2] and in series [3] were 2.1 °C and 2.2 °C, respectively. The inhibition in series [4] was determined as 29.5%.
The like results for `c1ccc(-c2ncc(-c3cnc(-c4ccccc4)[nH]3)cn2)cc1` were, in that order, 8.88 nM, 59 nM, 3.6 °C, 3.8 °C and 94.5%.
For the compound `CC(C)(O)c1nc(-c2cccc(CNC(=O)c3ccc(-c4ccccn4)nc3)c2)no1`, the half-inhibitory concentration (IC50) in series [1] was found to be 55.5 nM; in series [5], 328 nM. In addition, the shift in melting temperature (ΔTm) is 0.1 °C in series [2] and 2.8 °C in series [3]. Further, the inhibition in series [4] was determined as 47.2%.
The like results for `CC(C)(O)c1nc(-c2cccc(-c3ncc(-c4ccc(-c5ccccn5)nc4)[nH]3)c2)no1` were, in that order, 78.6 nM, 23.4 nM, 4.8 °C, 5.4 °C and 76.1%.
The Ki is a dissociation constant, usually derived from enzyme kinetics or from competition with a known ligand. Compound `c1ccc(C(OC2CCN(CCCc3nnn[nH]3)CC2)c2ccccc2)cc1` returned a Ki in series [7] of 5 µM.
`Cc1nc(-c2ccccc2)[nH]c1-c1cnc(-c2ccccc2)nc1`: the IC50 in series [1] came out at 30.8 nM; in series [5] it was 3740 nM. In addition, the shift in melting temperature (ΔTm) stood at 4.3 °C in series [2] and 4.5 °C in series [3]. Besides, the inhibition in series [4] was determined as 81.5%.
The like results for `CC(C)(O)c1nc(-c2cccc(-c3ncc(-c4ccc(-c5ccccc5)nc4)[nH]3)c2)no1` were, in that order, 35.4 nM, 72 nM, 4.3 °C, 5.2 °C and 83.5%.
For the compound `O=C(NCc1ccccc1)c1ccc(-c2ccccc2)nc1`, the IC50 in series [1] stood at 122 nM; in series [5] it was 1230 nM. The thermal shift (ΔTm) in series [2] was 0.3 °C; in series [3], 3 °C. For the same compound, the inhibition in series [4] was determined as 40.4%.
By half-life is commonly meant the time needed for the level to fall by half in the phase considered. `CC(C)(O)c1nc(-c2cccc(-c3ncc(-c4cnc(-c5ccccc5)nc4)[nH]3)c2)no1`: the values for the IC50 in series [1] and in series [5] were 5.88 nM and 20.7 nM, respectively. For the same compound, the values for the shift in melting temperature (ΔTm) in series [2] and in series [3] were 6.9 °C and 7.1 °C, respectively. For the same compound, the inhibition in series [4] was found to be 92.1%. This compound yielded a half-life in series [8] greater than 60 min. The same compound showed a solubility in series [6] of 3.3 µM (≈ 1.4 µg/mL).
In the case of `O=C(NCc1ccccc1)c1cnc(-c2ccccn2)nc1`, the IC50 was found to be 7.14 nM in series [1] and 35.7 nM in series [5]. Besides, the ΔTm is 0.2 °C in series [2] and 4.2 °C in series [3]. In addition, the inhibition in series [4] worked out at 71.3%.
The like results for `CC(C)(O)c1nc(-c2cccc(CNC(=O)c3cnc(-c4ccccc4)nc3)c2)no1` were, in that order, 7.18 nM, 9.86 nM, 0.4 °C, 4.95 °C and 83.9%.
The like results for `O=C(NCc1ccccc1)c1ccc(-c2ccccn2)nc1` were, in that order, 80.7 nM, 453 nM, 0.1 °C, 2.8 °C and 19.2%.
Take `O=C(NCc1ccccc1)c1cnc(-c2ccccc2)nc1`: the results for the IC50 in series [1] and in series [5] were 11.7 nM and 23.9 nM, respectively. Besides, the ΔTm in series [2] amounted to 0.4 °C; in series [3], 4.6 °C. For the same compound, the inhibition in series [4] came out at 82.5%.
